Source: patent US20180353613A1, “ANIONIC NANOPARTICLES FOR USE IN THE DELIVERY OF ANIONIC SMALL MOLECULE DRUGS” (B.G. NEGEV TECHNOLOGIES AND APPLICATIONS LTD, priority 2015, published 2018)
Converted amounts (≈) assume the structure as drawn.

Assays:
[1] = test system: CT26 mouse colon carcinoma cells; experiment: In vitro cytotoxicity of MTX complexes, PrestoBlue cell viability assay; type: cell-based; conditions: CT26, 48 h incubation
Experimental: CT26 mouse colon carcinoma cells or MDA-MB-231 human breast cancer cell line were seeded in 48-well plates at a density of 10,000 cells per well. After 24 h, medium was replaced with medium containing MTX nano-complexes or free MTX at various concentrations. After 48 h incubation, cell viability was assessed using PrestoBlue cell viability assay (Life Technologies, Carlsbad, Calif.). The assay is based on the live cell's ability to reduce resazurin (non-fluorescent) to resorufin (fluorescent). PrestoBlue working solution was prepared by dilution of PrestoBlue reagent 1:10 in cell culture medium. PrestoBlue working solution was added to the cells for 1 h at 37° C. and 5% CO2. Fluorescent intensity was measured using the Synergy Mx microplate reader (Biotek, Winooski, Vt.) at an excitation wavelength of 560 nm and emission wavelength of 590 nm. The percentage of cell viability was obtained after normalizing the data to untreated cells.
Statistical analysis was performed with GraphPad Prism version 6.05 for Windows (GraphPad Software, San Diego, Calif.). All variables are expressed as mean±SEM. […] Differences between experimental groups as a function of drug concentration were evaluated by 2-way ANOVA, with Sidak's multiple comparisons test. […]

[2] = test system: MDA-MB-231 human breast cancer cell line; experiment: In vitro cytotoxicity of DOX NPs, PrestoBlue cell viability assay; type: cell-based; conditions: MDA-MB-231, 48 h
Experimental: MDA-MB-231 or DOX-resistant human ovary carcinoma cell line NAR cells were seeded in 48-well plates at a density of 10,000 cells per well. After 24 h, medium was replaced with medium containing DOX NPs or free DOX at various concentrations. After incubation for 4 h, the medium was replaced to drug-free culture medium. After 48 h incubation, cell viability was assessed using PrestoBlue cell viability assay, as described above.
Statistical analysis was performed with GraphPad Prism version 6.05 for Windows (GraphPad Software, San Diego, Calif.). All variables are expressed as mean±SEM. To test the hypothesis that changes in DLS and potential measurements varied over time among the experimental groups, a general linear 2-way repeated-measures (RM) ANOVA model was used. The model included the effects of treatment, time, and treatment-by-time interaction, with Sidak's multiple comparisons test. Viability data was fit using 4-parametric logistic regression curve, where applicable. IC50 values obtained from the intersection of regression line with 50% response. Differences between experimental groups as a function of drug concentration were evaluated by 2-way ANOVA, with Sidak's multiple comparisons test. P<0.05 was considered statistically significant.

MDA-MB-231 cells [3] = experiment: In vivo antitumor activity in MDA-MB-231 tumor-bearing athymic nude mice; conditions: 4 mg/kg i.v., three weekly injections
Experimental: Female athymic nude mice (six weeks old, body weight=20-23 g) are inoculated to the right cranial trunk region with MDA-MB-231 cells/Matrigel™ 1:1 (v/v) suspension (3×10^6 cells/0.2 mL/animal). Treatment is commenced when tumor size is approximately 100-150 mm^3. Mice are treated intravenously (i.v.) with three weekly injections of 4 mg/kg ([…] 12 mg/kg) of DOX or DOX NPs in saline. NPs were prepared as described above using the following stock solutions: 2 mg/ml DOX, 1M CaCl2, 50 μg/ml AlgS. Prior to injection: DOX (0.5 mg/ml), or DOX NPs were diluted 1:1.5 in saline. Tumor progression is monitored twice a week by caliper measurement and calculated using the formula: Volume=(width)^2×length/2. Mice are observed daily, and body weight is detected as possible signs of toxicity. For histological analysis, mice are euthanized at the end of the treatments. Following excision, tumors are weighted, fixed in 4% formaldehyde, embedded in paraffin, and sectioned into 5-μm slices. Tissue samples are analyzed by H&E staining for histopathological changes, Ki67 staining for cell proliferation and TUNEL assay for apoptotic cell death.

MDA-MB-231 cells [4] = experiment: Cellular uptake of DOX by ImageStreamX imaging flow cytometry; type: cell-based, human; conditions: 5.8 μg/ml DOX
Experimental: (§1) Imaging experiments using an imaging flow cytometer (Amnis ImageStreamX, ISX) were performed to quantitatively evaluate the cellular uptake of DOX. Cells were seeded in 6-well culture plates at a cell density of 300,000 cells per well. Twenty-four hours post-seeding, the cells were incubated for 4 h with Free DOX or AlgS-Ca^2+-DOX anionic NPs (5.8 μg/ml DOX, 5 mM Ca^2+, 0.5 μg/ml AlgS), and then medium was replaced to fresh medium for 24 h. For ISX analysis, the cells were harvested (at 4 or 24 h after DOX NP addition) by trypsinization followed by centrifugation at 300 g for 5 min. The cell pellet was resuspended in FACS buffer (PBS containing 2% FBS, v/v) and cells were analyzed using ImageStreamX Mark II (Amnis, Seattle, Wash.). Cell acquisition and analysis were performed using IDEAS Application, version 6.0.

NAR cells = experiment: as above; type: cell-based, human; conditions: 5.8 μg/ml DOX
Experimental: as §1

SMILES	IC50 [1]	IC50 [2]	tumor size compared to controls (MDA-MB-231 cells [3])	% positive cells (DOX-positive) (MDA-MB-231 cells [4]; MDA-MB-231, 4 h)	Mean Fluorescent intensity (MDA-MB-231 cells [4]; MDA-MB-231, 4 h)	% positive cells (DOX-positive) (MDA-MB-231 cells [4]; MDA-MB-231, 24 h)	Mean Fluorescent intensity (MDA-MB-231 cells [4]; MDA-MB-231, 24 h)	% positive cells (DOX-positive) (NAR cells; 4 h)	Mean Fluorescent intensity (NAR cells; 4 h)	% positive cells (DOX-positive) (NAR cells; 4 h, listed as free DOX)	% positive cells (DOX-positive) (NAR cells; 24 h)	Mean Fluorescent intensity (NAR cells; 24 h)
CN(Cc1cnc2nc(N)nc(N)c2n1)c1ccc(C(=O)N[C@@H](CCC(=O)O)C(=O)O)cc1 [MTX, Methotrexate]	0.00696 µg/mL	1.27 µg/mL (≈ 2.79 µM)										
COc1cccc2c1C(=O)c1c(O)c3c(c(O)c1C2=O)C[C@@](O)(C(=O)CO)C[C@@H]3O[C@H]1C[C@H](N)[C@H](O)[C@H](C)O1.Cl [Free DOX, Doxorubicin-HCl]			reduced	90%	59061	72%	41944	71%	40932	~70%	13%	15108
